Test [1] has as its target T1, P2X7-mediated pore (MDCK cells expressing P2X7 or P2X7-j) (Homo sapiens, UniProt Q99572, Y155H).
T1 construct: expressed in transfected cells; host or cells: MDCK (canine kidney), doxycycline-inducible promoter
Kind of test: BzATP-stimulated pore activation (ethidium bromide entry), MDCK cells. Type of test: cell-based. To be noted: doxycycline-treated MDCK-P2X7-j cells compared to MDCK-P2X7 cells. The method, then:
(§1) BzATP-stimulated pore activation of P2X7 and P2X7-j receptor proteins was also determined. FIG. 13. MDCK cells or HEK-293 cells expressing either P2X7 or P2X7-j were treated with BzATP in the presence of ethidium bromide. Fluorescence of ethidium bromide was measured after BzATP activation (100 micromolar) as a measure of ethidium bromide entry into the cells via the P2X7-mediated pore. Results in seven Panels (A-G) each composed of 30 exposures of cells placed on a glass slide. The direction of the pictures in each Panel is left to right, and then up-down. […] FIG. 13, Panel B and Panel F, respectively.
(§2) A quantification of the changes in ethidium bromide signaling from experiments similar to those in FIG. 13 was then calculated. FIG. 14.

The target of test [2] is T2, P2X7-mediated pore (MDCK cells expressing P2X7 or P2X7-j) (Homo sapiens, UniProt Q99572, R270H/Y155H).
T2 construct: expressed in transfected cells; host or cells: MDCK (canine kidney), doxycycline-inducible promoter
Described as above. The conditions noted are these: doxycycline-treated MDCK-P2X7 cells; BzATP 100 micromolar. Type of test: cell-based. The method, then:
as §1, §2

Test [3] has as its target T3, P2X7-mediated pore (HEK-293 cells expressing P2X7 or P2X7-j) (Homo sapiens, UniProt Q99572, Y155H).
T3 construct: expressed in transfected cells; host or cells: HEK-293
The class given is cell-based. The conditions noted are these: HEK-293-P2X7-j cells compared to HEK-293-P2X7 cells.

Test [4] addresses T4, P2X7-mediated pore (HEK-293 cells expressing P2X7 or P2X7-j) (Homo sapiens, UniProt Q99572, R270H/Y155H).
T4 construct: expressed in transfected cells; host or cells: HEK-293
The class given is cell-based. The conditions noted are these: HEK-293-P2X7 cells; BzATP 100 micromolar.

In test [5] the test system is P2X7-mediated pore (HEK-293 cells expressing P2X7 or P2X7-j). Type of test: cell-based, human. To be noted: P2X7 plus P2X7-j HEK-293 cells compared to P2X7 HEK-293 cells.
Test [6] concerns MDCK-P2X7 cells. Kind of test: Apoptosis, Cell Death Detection ELISA-PLUS, MDCK cells. The class given is cell-based, canine. The conditions noted are these: doxycycline treated MDCK-P2X7 cells; BzATP 50 micromolar. The method, then: Baseline and BzATP-induced apoptosis in MDCK cells and in HEK-293 cells expressing P2X7 and P2X7-j proteins were studied. FIG. 17. […] Cells were treated with BzATP (50 micromolar) to activate the P2X7 receptors. Apoptosis was quantified using Cell Death Detection ELISA-PLUS photometric enzyme-immunoassay that determines cytoplasmic histone-associated-DNA-fragments (mono and oligonucleosomes) after spontaneous or induced cell death (Roche, Cat. No. 1774425, 96 tests). […] Expression of the P2X7-j proteins either had no effect (HEK-293 cells) or may have decreased apoptosis (MDCK cells).
(In an ELISA, binding on a coated surface is turned into a signal by an enzyme label.)

The target of test [7] is T5, full-length human P2X7 receptor (HEK-293-hP2X7-R cells) (Homo sapiens, UniProt Q99572).
T5 construct: For transfections, the full length human P2X7 receptor; expressed in transfected cells; host or cells: HEK-293, pcDNA-6 vector
T5 sequence (Q99572 1-595): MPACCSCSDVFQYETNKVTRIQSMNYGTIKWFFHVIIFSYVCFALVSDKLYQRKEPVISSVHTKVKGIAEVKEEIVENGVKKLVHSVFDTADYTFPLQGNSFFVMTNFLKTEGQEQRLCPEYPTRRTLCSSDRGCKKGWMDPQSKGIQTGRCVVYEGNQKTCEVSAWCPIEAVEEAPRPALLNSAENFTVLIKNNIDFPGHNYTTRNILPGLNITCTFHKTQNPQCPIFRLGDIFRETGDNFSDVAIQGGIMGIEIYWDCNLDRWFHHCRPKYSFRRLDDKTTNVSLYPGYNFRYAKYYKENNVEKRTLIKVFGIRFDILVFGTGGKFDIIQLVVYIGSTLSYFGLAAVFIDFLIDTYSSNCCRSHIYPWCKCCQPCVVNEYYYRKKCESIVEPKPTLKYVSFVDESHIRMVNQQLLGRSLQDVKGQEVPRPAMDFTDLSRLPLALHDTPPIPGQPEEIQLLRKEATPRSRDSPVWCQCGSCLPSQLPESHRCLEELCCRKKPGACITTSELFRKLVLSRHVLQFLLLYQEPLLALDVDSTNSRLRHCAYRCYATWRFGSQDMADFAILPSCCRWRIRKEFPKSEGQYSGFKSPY
Nature of the test: Ethidium bromide influx in HEK-293-hP2X7-R and wild-type HEK293 cells on filters. The class given is cell-based.

The target in test [8] is T6, P2X7 channel (MDCK cells expressing P2X7 or P2X7-j) (Homo sapiens, UniProt Q99572, R270H/Y155H).
T6 construct: expressed in transfected cells; host or cells: MDCK (canine kidney), doxycycline-inducible promoter
Kind of test: BzATP-stimulated channel activation (Fluo-4 calcium), MDCK cells. The class given is cell-based. To be noted: MDCK-P2X7 cells; 100 micromolar BzATP. The method, then:
(§3) 2′-3′-O-(4-benzoyl-benzoyl)adenosine 5′-triphosphate (BzATP) stimulated channel activation of P2X7 and P2X7-j was determined. FIG. 11. As discussed earlier, activation of P2X7 receptors provides influx of selected cations through the ATP-activated channel provided by the P2X7 protein. MDCK or HEK-293 cells expressing either P2X7 or P2X7-j were loaded with the calcium-sensitive dye Fluo-4 and treated with 100 micromolar of BzATP. Calcium entry into the cells via the P2X7 channel after BzATP activation was measured in terms of changes in Fluo-4 fluorescence.
(§4) A quantification of the changes in cytosolic calcium after BzATP exposure provided data that was similar to that presented in FIG. 11. FIG. 12.

The target of test [9] is T7, P2X7 channel (MDCK cells expressing P2X7 or P2X7-j) (Homo sapiens, UniProt Q99572, Y155H).
T7 construct: expressed in transfected cells; host or cells: MDCK (canine kidney), doxycycline-inducible promoter
Described as above. Type of test: cell-based. To be noted: MDCK-P2X7-j cells compared to MDCK-P2X7 cells. The method, then: as §3, §4

T3 sequence (Q99572 1-258 isoform Q99572-9 Y155H): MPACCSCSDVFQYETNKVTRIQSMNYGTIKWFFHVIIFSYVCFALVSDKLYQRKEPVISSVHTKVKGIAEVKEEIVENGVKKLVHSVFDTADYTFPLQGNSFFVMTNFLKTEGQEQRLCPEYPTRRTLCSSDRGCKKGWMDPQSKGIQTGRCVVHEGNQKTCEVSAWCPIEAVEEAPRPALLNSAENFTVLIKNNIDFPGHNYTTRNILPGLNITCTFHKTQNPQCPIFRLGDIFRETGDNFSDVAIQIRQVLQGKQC
T7 sequence (Q99572 1-258 isoform Q99572-9 Y155H): as above
T1 sequence (Q99572 1-258 isoform Q99572-9 Y155H): as above
T6 sequence (Q99572 whole entry Y155H/R270H): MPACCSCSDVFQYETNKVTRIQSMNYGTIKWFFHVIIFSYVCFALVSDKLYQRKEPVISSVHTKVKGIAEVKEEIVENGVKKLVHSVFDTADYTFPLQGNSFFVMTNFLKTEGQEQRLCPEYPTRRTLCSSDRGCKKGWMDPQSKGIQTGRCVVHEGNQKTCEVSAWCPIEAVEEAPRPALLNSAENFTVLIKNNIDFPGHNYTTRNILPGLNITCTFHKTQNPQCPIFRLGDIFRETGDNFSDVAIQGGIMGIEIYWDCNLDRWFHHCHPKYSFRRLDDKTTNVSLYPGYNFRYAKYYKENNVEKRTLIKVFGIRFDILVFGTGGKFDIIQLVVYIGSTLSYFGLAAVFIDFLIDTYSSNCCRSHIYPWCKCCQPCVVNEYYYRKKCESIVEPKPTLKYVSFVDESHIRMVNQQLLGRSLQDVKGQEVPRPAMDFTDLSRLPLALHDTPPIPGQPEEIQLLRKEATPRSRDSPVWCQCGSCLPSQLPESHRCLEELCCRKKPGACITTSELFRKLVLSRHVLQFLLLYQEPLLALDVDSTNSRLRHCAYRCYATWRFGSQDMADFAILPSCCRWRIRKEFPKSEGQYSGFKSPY
T4 sequence (Q99572 whole entry Y155H/R270H): as above
T2 sequence (Q99572 whole entry Y155H/R270H): as above

Take “2′-3′-O-(4-benzoylbenzoyl)adenosine 5′-triphosphate [BzATP]”: the “ethidium bromide signaling response to BzATP” value in test [1] and in [3] was “significantly smaller” in each case. Besides, the “ethidium bromide signaling (pore)” value in test [2] and in [4] was “increased ethidium bromide signaling” throughout. In addition, the “ethidium bromide response to BzATP” value in test [5] was “significantly smaller”. Also, in [6], the apoptosis result was “increased apoptosis”. In addition, the “influx of ethidium bromide” value in test [7] is “influx of ethidium bromide”. Moreover, the “Fluo-4 signal (cytosolic calcium)” value in test [8] is on record as “increased acutely the Fluo-4 signal”. The “calcium response to BzATP” value in test [9] is listed as “significantly smaller”.

(Values after US7767789B2, “Truncated proteins as cancer markers” (University Hopitals of Cleveland, priority 2005, dated 2010).)
